Laboratory results reported in the supplement of paper PMC11208160.

Test: recombinant UMI read abundance after kanamycin selection (control-corrected) (log10(CPM+1)); higher = more efficient recombination; extreme values may be limits of the assay; sequences stand for … in AGTGCAGAGAAAATCGGCCAGTTTTCTCTGCCTGCAGTCCGCATGCCGTGGGACCCCTTGGGTTCTAACCTGTTGCCTAGATTTATGCAGCGGACTGCCTTTCTCCCAAAGTGATAAACCGG…AGGTTGGTTTCACT; site = the 11-nt donor
Method in brief: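 After plating on IPTG (0.07 mM) plus kanamycin, or unselected, in two replicates, recombinant UMIs were PCR-amplified across the donor–target junction and sequenced. The cells were Escherichia coli co-electroporated with a UMI-tagged donor and donor-binding-loop pair library and a target plasmid with a fixed target and T7-inducible IS621 bridge recombinase. Values are log10(CPM+1), with CPM averaged over replicates and scaled by control-derived factors.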

Row | Sequence | recombinant UMI read abundance (log10)
1 | CCTAACACATGGACCGGTTTTCCCGGTAATCCGTATTTGGC (site CCTAAAACTGC) | 0
2 | CCTAACACATGGACCGGTTTTCCCGGTAATCCGTATTTGGC (site CCTAACACTGC) | 0
3 | CCTAACACATGGACCGGTTTTCCCGGTAATCCGTATTTGGC (site CCTAAGACTGC) | 0
4 | CCTAACACATGGACCGGTTTTCCCGGTAATCCGTATTTGGC (site CCTAATACTGC) | 0
5 | CCTAACGCATGGACCGGTTTTCCCGGTAATCCGTATTTGAT (site CCTAAAGCTAT) | 0
6 | CCTAACGCATGGACCGGTTTTCCCGGTAATCCGTATTTGAT (site CCTAACGCTAT) | 0
7 | CCTAACGCATGGACCGGTTTTCCCGGTAATCCGTATTTGAT (site CCTAAGGCTAT) | 0
8 | CCTAACGCATGGACCGGTTTTCCCGGTAATCCGTATTTGAT (site CCTAATGCTAT) | 0
9 | CCTAATCCATGGACCGGTTTTCCCGGTAATCCGTATTTGGC (site CCTAATACTGC) | 0
10 | CCTAATCCATGGACCGGTTTTCCCGGTAATCCGTATTTGGC (site CCTAATCCTGC) | 0
11 | CCTAATCCATGGACCGGTTTTCCCGGTAATCCGTATTTGGC (site CCTAATGCTGC) | 0
12 | CCTAATCCATGGACCGGTTTTCCCGGTAATCCGTATTTGGC (site CCTAATTCTGC) | 0
13 | CCTACAACATGGACCGGTTTTCCCGGTAATCCGTATTTGAA (site CCTACAACTTT) | 0.0165
14 | CCTACTACATGGACCGGTTTTCCCGGTAATCCGTATTTGGC (site CCTAATACTGC) | 0
15 | CCTACTACATGGACCGGTTTTCCCGGTAATCCGTATTTGGC (site CCTACTACTGC) | 0
16 | CCTACTACATGGACCGGTTTTCCCGGTAATCCGTATTTGGC (site CCTAGTACTGC) | 0
17 | CCTACTACATGGACCGGTTTTCCCGGTAATCCGTATTTGGC (site CCTATTACTGC) | 0
18 | CCTACTTCATGGACCGGTTTTCCCGGTAATCCGTATTTGAT (site CCTACTTCTAT) | 0
19 | CCTATACCATGGACCGGTTTTCCCGGTAATCCGTATTTGCG (site CCTATACCTCG) | 0.0152
20 | CCTATAGCATGGACCGGTTTTCCCGGTAATCCGTATTTGAT (site CCTAAAGCTAT) | 0
21 | CCTATAGCATGGACCGGTTTTCCCGGTAATCCGTATTTGAT (site CCTACAGCTAT) | 0
22 | CCTATAGCATGGACCGGTTTTCCCGGTAATCCGTATTTGAT (site CCTAGAGCTAT) | 0.0174
23 | CCTATAGCATGGACCGGTTTTCCCGGTAATCCGTATTTGAT (site CCTATAGCTAT) | 0.00747
24 | CCTATTACATGGACCGGTTTTCCCGGTAATCCGTATTTGGC (site CCTAATACTGC) | 0
25 | CCTATTACATGGACCGGTTTTCCCGGTAATCCGTATTTGGC (site CCTACTACTGC) | 0

Row | Sequence | recombinant UMI read abundance (log10)
26 | CCTATTACATGGACCGGTTTTCCCGGTAATCCGTATTTGGC (site CCTAGTACTGC) | 0
27 | CCTATTACATGGACCGGTTTTCCCGGTAATCCGTATTTGGC (site CCTATTACTGC) | 0
28 | CCTATTTCATGGACCGGTTTTCCCGGTAATCCGTATTTGGC (site CCTATTTCTGC) | 0
29 | CCTATTTCATGGACCGGTTTTCCCGGTAATCCGTATTTGTC (site CCTATTTCTGA) | 0
30 | CCTCCAACATGGACCGGTTTTCCCGGTAATCCGTATTTGTA (site CCTCCAACTTA) | 0.0158
31 | CCTCGGACATGGACCGGTTTTCCCGGTAATCCGTATTTGGG (site CCTCGGACTCC) | 0.0416
32 | CCTCTAGCATGGACCGGTTTTCCCGGTAATCCGTATTTGTA (site CCTCTAGCTTA) | 0.352
33 | CCTGAGACATGGACCGGTTTTCCCGGTAATCCGTATTTGAG (site CCTGAGACTCT) | 0.00693
34 | CCTGGAACATGGACCGGTTTTCCCGGTAATCCGTATTTGTT (site CATGGAACTAA) | 0.0113
35 | CCTGGAACATGGACCGGTTTTCCCGGTAATCCGTATTTGTT (site CCTGGAACTAA) | 0.00583
36 | CCTGGAACATGGACCGGTTTTCCCGGTAATCCGTATTTGTT (site CGTGGAACTAA) | 0.00754
37 | CCTGGAACATGGACCGGTTTTCCCGGTAATCCGTATTTGTT (site CTTGGAACTAA) | 0.00851
38 | CCTGGTGCATGGACCGGTTTTCCCGGTAATCCGTATTTGAT (site CCAGGTGCTAT) | 0.00887
39 | CCTGGTGCATGGACCGGTTTTCCCGGTAATCCGTATTTGAT (site CCCGGTGCTAT) | 0.00946
40 | CCTGGTGCATGGACCGGTTTTCCCGGTAATCCGTATTTGAT (site CCGGGTGCTAT) | 0.00642
41 | CCTGGTGCATGGACCGGTTTTCCCGGTAATCCGTATTTGAT (site CCTGGTGCTAT) | 0.494
42 | CCTGTTCCATGGACCGGTTTTCCCGGTAATCCGTATTTGTC (site CCTGTTCCTGA) | 0
43 | CCTGTTTCATGGACCGGTTTTCCCGGTAATCCGTATTTGAC (site CCTGTTTCTGT) | 0
44 | CCTTAGCCATGGACCGGTTTTCCCGGTAATCCGTATTTGCC (site CCATAGCCTGG) | 0
45 | CCTTAGCCATGGACCGGTTTTCCCGGTAATCCGTATTTGCC (site CCCTAGCCTGG) | 0
46 | CCTTAGCCATGGACCGGTTTTCCCGGTAATCCGTATTTGCC (site CCGTAGCCTGG) | 0
47 | CCTTAGCCATGGACCGGTTTTCCCGGTAATCCGTATTTGCC (site CCTTAGCCTGG) | 0
48 | CCTTCTACATGGACCGGTTTTCCCGGTAATCCGTATTTGAT (site CCTTCTACTAT) | 0
49 | CCTTGACCATGGACCGGTTTTCCCGGTAATCCGTATTTGAG (site CCTTGACCTCT) | 0.0135
50 | CCTTGAGCATGGACCGGTTTTCCCGGTAATCCGTATTTGTA (site CCTTGAGCTTA) | 0.013

Row | Sequence | recombinant UMI read abundance (log10)
51 | CCTTGCACATGGACCGGTTTTCCCGGTAATCCGTATTTGAG (site CCTTGCACTCT) | 0.0135
52 | CCTTGTGCATGGACCGGTTTTCCCGGTAATCCGTATTTGGA (site CCTTGTGCTTC) | 0.0149
53 | CCTTTACCATGGACCGGTTTTCCCGGTAATCCGTATTTGCC (site AGACCGTCTCT) | 0.00566
54 | CCTTTTACATGGACCGGTTTTCCCGGTAATCCGTATTTGCT (site CCATTTACTAG) | 0
55 | CCTTTTACATGGACCGGTTTTCCCGGTAATCCGTATTTGCT (site CCCTTTACTAG) | 0
56 | CCTTTTACATGGACCGGTTTTCCCGGTAATCCGTATTTGCT (site CCGTTTACTAG) | 0.00369
57 | CCTTTTACATGGACCGGTTTTCCCGGTAATCCGTATTTGCT (site CCTTTTACTAG) | 0
58 | CGAAATCCATGGACCGGTTTTCCCGGTAATCCGTATTTGCT (site CGAAATCCTAG) | 0.783
59 | CGAAATCCATGGACCGGTTTTCCCGGTAATCCGTATTTGCT (site CGGAATCCTAA) | 0
60 | CGAAATCCATGGACCGGTTTTCCCGGTAATCCGTATTTGTA (site CGAAATCCTTA) | 1.11
61 | CGAAATCCATGGACCGGTTTTCCCGGTAATCCGTATTTGTA (site CGGAATCCTAA) | 0.00383
62 | CGAAATCCATGGACCGGTTTTCCCGGTAATCCGTATTTGTT (site CGAAATCCTAA) | 0.953
63 | CGAAATCCATGGACCGGTTTTCCCGGTAATCCGTATTTGTT (site CGCAATCCTAA) | 0
64 | CGAAATCCATGGACCGGTTTTCCCGGTAATCCGTATTTGTT (site CGGAATCCTAA) | 0
65 | CGAAATCCATGGACCGGTTTTCCCGGTAATCCGTATTTGTT (site CGTAATCCTAA) | 0
66 | CGAAATTCATGGACCGGTTTTCCCGGTAATCCGTATTTGTT (site CGAAATTCTAA) | 0.945
67 | CGAAATTCATGGACCGGTTTTCCCGGTAATCCGTATTTGTT (site CGGAATCCTAA) | 0
68 | CGAACACCATGGACCGGTTTTCCCGGTAATCCGTATTTGCT (site CGAACACCTAG) | 0
69 | CGAACACCATGGACCGGTTTTCCCGGTAATCCGTATTTGCT (site CGATCATCTAG) | 0
70 | CGAACGTCATGGACCGGTTTTCCCGGTAATCCGTATTTGCT (site CGAACGTCTAG) | 2.87
71 | CGAACGTCATGGACCGGTTTTCCCGGTAATCCGTATTTGCT (site CGATCATCTAG) | 0
72 | CGAAGAGCATGGACCGGTTTTCCCGGTAATCCGTATTTGAC (site CGAAGAGCTGT) | 2.51
73 | CGAAGGGCATGGACCGGTTTTCCCGGTAATCCGTATTTGGT (site CGAAGGGCTAC) | 1.32
74 | CGAAGTACATGGACCGGTTTTCCCGGTAATCCGTATTTGCG (site CGAAGTACTCG) | 2.12
75 | CGAATACCATGGACCGGTTTTCCCGGTAATCCGTATTTGTA (site CGAATACCTTA) | 0
